Our source for the inhibition, Kd and Activity values is ChEMBL document CHEMBL6121055, “Strategic Mutations in Designer Native Peptides Combat NLRP3 Inflammasome Activation in Neurodegenerative Disorders” (J Med Chem, 2025).

The subject of data set [1] is N9. In words: Inhibition of NLRP3 inflammasome activation mediated pyroptosis in LPS/ATP-stimulated mouse N9 cells assessed as reduction in cell death at 100 uM measured after 24 hrs by MTT assay. Format: cell-based. Background: Tetrazolium assays rely on reduction of a dye to a coloured formazan, in cell work by metabolically active cells.
Data set [2] relates to N9. In words: Inhibition of NLRP3 inflammasome activation in LPS/ATP-stimulated mouse N9 cells assessed as inhibition of caspase-1 mRNA expression at 20 uM by qRT-PCR analysis. It is filed as cell-based.
The test system of data set [3] is N9. In words: Inhibition of NLRP3 inflammasome activation in LPS/ATP-stimulated mouse N9 cells assessed as inhibition of IL-1beta mRNA expression at 20 uM by qRT-PCR analysis. Format: cell-based. (In general: In qPCR the cycle at which signal appears reflects the starting amount.)
Data set [4] deals with Apoptosis-associated speck-like protein containing a CARD (Homo sapiens, UniProt Q9ULZ3). Kind of data set: Binding affinity to Alexa647-labeled ASC (unknown origin) assessed as dissociation constant incubated for 5 mins by fluorescence spectra based analysis.
Sequence of Apoptosis-associated speck-like protein containing a CARD (Q9ULZ3 whole entry): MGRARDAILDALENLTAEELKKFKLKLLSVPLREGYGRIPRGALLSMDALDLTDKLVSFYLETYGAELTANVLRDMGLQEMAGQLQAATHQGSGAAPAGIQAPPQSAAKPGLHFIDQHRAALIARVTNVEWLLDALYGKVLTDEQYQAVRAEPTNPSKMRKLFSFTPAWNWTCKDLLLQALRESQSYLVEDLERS
Data set [5] can be described thus: Cytotoxicity against mouse N9 cells assessed as reduction in cell viability at 100 uM incubated for 24 hrs by MTT assay. It is filed as toxicity, cell-based. The following applies: n9, 24 h.
Data set [6] has as its target T1, Apoptosis-associated speck-like protein containing a CARD (Mus musculus) (UniProt Q9EPB4).
T1 sequence (whole entry): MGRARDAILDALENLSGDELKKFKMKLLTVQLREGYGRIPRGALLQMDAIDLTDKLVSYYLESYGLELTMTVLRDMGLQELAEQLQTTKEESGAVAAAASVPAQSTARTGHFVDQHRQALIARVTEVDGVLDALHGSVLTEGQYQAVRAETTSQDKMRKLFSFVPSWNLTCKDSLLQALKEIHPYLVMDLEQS
In words: Binding affinity to ASC in LPS-stimulated mouse N9 cells at 10 to 30 uM incubated overnight by Western blot based pull down assay. Format: cell-based. The following applies: dose 10-30 µM. (Immunoblotting shows a protein as a band on a membrane.)

For data set [7], the system named is N9. Kind of data set: Binding affinity to NLRP3 in LPS-stimulated mouse N9 cells at 10 to 30 uM incubated overnight by Western blot based pull down assay. It is filed as cell-based. The following applies: dose 10-30 µM.

The source made the active and inactive calls. The calls are words filed in the database; no cut-off is given here. Residues, ends and D or L forms follow the SMILES beside them. *: point of attachment. Biotin = O=C1N[C@H]2[C@H](CS[C@H]2CCCCC(=O)*)N1

On to `CC[C@H](C)[C@H](NC(=O)[C@H](C)NC(=O)[C@H](C)NC(=O)[C@H](Cc1ccccc1)NC(=O)[C@@H](NC(=O)[C@H](Cc1c[nH]c2ccccc12)NC(=O)[C@@H](N)C(C)C)[C@@H](C)CC)C(=O)N[C@@H](CC(N)=O)C(=O)N[C@@H](CCCNC(=N)N)C(=O)N[C@@H](CCCNC(=N)N)C(=O)O` (H-VWIFAAINRR-OH), for which, in the data set with N9 [1], the inhibition entry is “Active”. Further, the inhibition result in the data set on N9 [2] and with N9 [3] was “Active; Better Activity Observed” in each case. Further, in data set [4], the Kd came out at 850 nM. In addition, the Activity entry in data set [5] was “Non-toxic”.
On to `C[C@H](NC(=O)[C@@H](N)CCCCN)C(=O)N[C@@H](CCCCN)C(=O)N[C@@H](CCCNC(=N)N)C(=O)N[C@@H](CC(=O)O)C(=O)O` (H-KAKRD-OH), for which the inhibition result in the data set with N9 [2] and in the data set with N9 [3] was “Active” each time. For the same compound, the Activity entry in data set [5] is reported as “Non-toxic”.
In the case of `CC[C@H](C)[C@H](NC(=O)[C@H](CS)NC(=O)CNC(=O)[C@@H](N)CCCCN)C(=O)N1CCC[C@H]1C(=O)N[C@@H](CC(C)C)C(=O)N1CCC[C@H]1C(=O)N[C@@H](CCCNC(=N)N)C(=O)O` (H-KGCIPLPR-OH), in data set [5], the Activity entry is recorded as “Non-toxic”.
`CSCC[C@H](NC(=O)[C@H](CO)NC(=O)[C@H](C)NC(=O)[C@@H](NC(=O)[C@H](CC(C)C)NC(=O)[C@H](CC(N)=O)NC(=O)[C@H](CCC(=O)O)NC(=O)[C@H](CC(C)C)NC(=O)[C@H](C)NC(=O)[C@@H](N)CC(=O)O)[C@@H](C)O)C(=O)N[C@@H](CC(=O)O)C(=O)O` (H-DALENLTASMD-OH): the Activity entry in data set [5] is “Non-toxic”.
For `CC[C@H](C)[C@H](NC(=O)[C@H](C)NC(=O)[C@H](C)NC(=O)[C@H](CC(C)C)NC(=O)[C@@H](NC(=O)[C@H](Cc1c[nH]c2ccccc12)NC(=O)[C@@H](NC(=O)CCCC[C@@H]1SC[C@@H]2NC(=O)N[C@@H]21)C(C)C)[C@@H](C)CC)C(=O)N[C@@H](CC(N)=O)C(=O)N[C@@H](CCCNC(=N)N)C(=O)N[C@@H](CCCNC(=N)N)C(=O)O` (Biotin-VWILAAINRR-OH), the outcome in data set [6] was Active. In the data set with N9 [7], the result was inactive.
For the compound `CC[C@H](C)[C@H](NC(=O)[C@H](CCSC)NC(=O)[C@H](CC(C)C)NC(=O)[C@@H](NC(=O)[C@H](C)NC(=O)[C@H](CC(C)C)NC(=O)[C@@H](N)CC(=O)O)[C@@H](C)O)C(=O)N[C@@H](CC(=O)O)C(=O)N[C@@H](Cc1ccccc1)C(=O)O` (H-DLATLMIDF-OH), the Activity entry in data set [5] is given as “Non-toxic”.
On the same count and under the same terms, the same measure for `CC[C@H](C)[C@H](NC(=O)[C@H](Cc1c[nH]c2ccccc12)NC(=O)[C@@H](N)C(C)C)C(=O)N[C@@H](CC(C)C)C(=O)N[C@@H](C)C(=O)N[C@@H](CCCCN)C(=O)N[C@@H](C)C(=O)N[C@@H](CCC(N)=O)C(=O)N[C@@H](CCCNC(=N)N)C(=O)N[C@@H](CC(=O)O)C(=O)O` (H-VWILAKAQRD-OH): “Non-toxic”; for `C[C@H](NC(=O)[C@@H](N)CCCCN)C(=O)N[C@@H](CCC(N)=O)C(=O)N[C@@H](CCCNC(=N)N)C(=O)N[C@@H](CC(=O)O)C(=O)O` (H-KAQRD-OH): “Non-toxic”.
As to `CC[C@H](C)[C@H](NC(=O)[C@H](Cc1c[nH]c2ccccc12)NC(=O)[C@@H](N)C(C)C)C(=O)N[C@@H](Cc1ccccc1)C(=O)N[C@@H](C)C(=O)N[C@@H](CCCCN)C(=O)N[C@@H](C)C(=O)N[C@@H](CCCCN)C(=O)N[C@@H](CCCNC(=N)N)C(=O)N[C@@H](CC(=O)O)C(=O)O` (H-VWIFAKAKRD-OH), the inhibition result with N9 [2] and in the data set with N9 [3] was “Active” in each case. The Activity entry in data set [5] is “Non-toxic”.
In the case of `CC(C)C[C@H](NC(=O)[C@H](C)NC(=O)[C@@H](N)CC(=O)O)C(=O)N[C@@H](CCC(=O)O)C(=O)N[C@@H](CC(N)=O)C(=O)O` (H-DALEN-OH), the Activity result in data set [5] is reported as “Non-toxic”.
As to `CSCC[C@H](NC(=O)[C@@H](N)CO)C(=O)N[C@@H](CC(=O)O)C(=O)N[C@@H](C)C(=O)N[C@@H](CC(C)C)C(=O)N[C@@H](CC(=O)O)C(=O)N[C@@H](CC(C)C)C(=O)N[C@H](C(=O)N[C@@H](CC(=O)O)C(=O)N[C@@H](CCCCN)C(=O)N[C@@H](CC(C)C)C(=O)N[C@H](C(=O)N[C@@H](CO)C(=O)O)C(C)C)[C@@H](C)O` (H-SMDALDLTDKLVS-OH), the Activity entry in data set [5] is recorded as “Non-toxic”.

What is called Kd is the constant that tells how readily two partners part at equilibrium.
